System: SUM149PT spheroids with HUVEC/MSC, viability
Experiment: Anticancer human tumor SUM149PT cell line growth inhibition [GQUAD];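 also: spheroids exposed to drugs for seven days before readout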;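 as to viability, T/C: percent viability relative to DMSO vehicle control taken as 100%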
Conditions: for IC50: curve of first compound; for viability, T/C: stronger effect = lower value
Method in brief: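 Tumor cells were grown as complex spheroids with HUVEC endothelial cells and mesenchymal stem cells as stroma. G-quadruplex stabilizers were combined with targeted agents over half-log dilutions from near the clinical Cmax, or from 10 microM.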

[1] = second compound 0.0316 µM, first compound 0.0316 µM
[2] = second compound 0.0316 µM, first compound 0.1 µM
[3] = second compound 0.0316 µM, first compound 0.316 µM
[4] = second compound 0.0316 µM, first compound 1 µM
[5] = second compound 0.0316 µM, first compound 3.16 µM
[6] = second compound 0.0316 µM, first compound 10 µM
[7] = second compound 0.1 µM, first compound 0.0316 µM
[8] = second compound 0.1 µM, first compound 0.1 µM
[9] = second compound 0.1 µM, first compound 0.316 µM
[10] = second compound 0.1 µM, first compound 1 µM
[11] = second compound 0.1 µM, first compound 3.16 µM
[12] = second compound 0.1 µM, first compound 10 µM
[13] = second compound 0.316 µM, first compound 0.0316 µM
[14] = second compound 0.316 µM, first compound 0.1 µM
[15] = second compound 0.316 µM, first compound 0.316 µM
[16] = second compound 0.316 µM, first compound 1 µM
[17] = second compound 0.316 µM, first compound 3.16 µM
[18] = second compound 0.316 µM, first compound 10 µM
[19] = second compound 1 µM, first compound 0.0316 µM
[20] = second compound 1 µM, first compound 0.1 µM
[21] = second compound 1 µM, first compound 0.316 µM
[22] = second compound 1 µM, first compound 1 µM
[23] = second compound 1 µM, first compound 3.16 µM
[24] = second compound 1 µM, first compound 10 µM
[25] = second compound 3.16 µM, first compound 0.0316 µM
[26] = second compound 3.16 µM, first compound 0.1 µM
[27] = second compound 3.16 µM, first compound 0.316 µM
[28] = second compound 3.16 µM, first compound 1 µM
[29] = second compound 3.16 µM, first compound 3.16 µM
[30] = second compound 3.16 µM, first compound 10 µM
[31] = second compound 10 µM, first compound 0.0316 µM
[32] = second compound 10 µM, first compound 0.1 µM
[33] = second compound 10 µM, first compound 0.316 µM
[34] = second compound 10 µM, first compound 1 µM
[35] = second compound 10 µM, first compound 3.16 µM
[36] = second compound 10 µM, first compound 10 µM

How did the IC50 (second compound 0.0316 µM) turn out when `C=CCn1c(=O)c2cnc(Nc3ccc(N4CCN(C)CC4)cc3)nc2n1-c1cccc(C(C)(C)O)n1` + Cc1[nH]c2ccc(F)cc2c1-c1nc2c3cccnc3c3ncccc3c2[nH]1 was run?
Its IC50 is 188 nM.

What about the IC50 (second compound 0.1 µM) of the same compound?
Its IC50 is 192 nM.

What about the IC50 (second compound 0.316 µM) of the same compound?
The IC50 was 191 nM.

What about the IC50 (second compound 1 µM) of the same compound?
The IC50 was 181 nM.

What about the IC50 (second compound 3.16 µM) of the same compound?
Its IC50 is 174 nM.

What about the IC50 (second compound 10 µM) of the same compound?
Its IC50 is 189 nM.

And the viability, T/C [1]?
The viability, T/C was 98.9%.

What about the viability, T/C [2] of the same compound?
The viability, T/C was 67%.

What about the viability, T/C [3] of the same compound?
Its viability, T/C is 34.8%.

And the viability, T/C [4]?
The viability, T/C was 21%.

What about the viability, T/C [5] of the same compound?
The viability, T/C was 10.4%.

What about the viability, T/C [6] of the same compound?
Its viability, T/C is 7.37%.

What about the viability, T/C [7] of the same compound?
The viability, T/C was 91.1%.

And the viability, T/C [8]?
Its viability, T/C is 73.5%.

What about the viability, T/C [9] of the same compound?
The viability, T/C was 30.3%.

What about the viability, T/C [10] of the same compound?
The viability, T/C was 21.4%.

And the viability, T/C [11]?
The viability, T/C was 11.7%.

And the viability, T/C [12]?
Its viability, T/C is 7.7%.

What about the viability, T/C [13] of the same compound?
Its viability, T/C is 94.7%.

What about the viability, T/C [14] of the same compound?
Its viability, T/C is 72.5%.

What about the viability, T/C [15] of the same compound?
Its viability, T/C is 31.1%.

And the viability, T/C [16]?
Its viability, T/C is 21.9%.

What about the viability, T/C [17] of the same compound?
The viability, T/C was 10.5%.

And the viability, T/C [18]?
Its viability, T/C is 11.6%.

What about the viability, T/C [19] of the same compound?
The viability, T/C was 85.8%.

And the viability, T/C [20]?
The viability, T/C was 66.1%.

And the viability, T/C [21]?
The viability, T/C was 33.2%.

What about the viability, T/C [22] of the same compound?
Its viability, T/C is 22.6%.

And the viability, T/C [23]?
Its viability, T/C is 9.91%.

What about the viability, T/C [24] of the same compound?
The viability, T/C was 9.92%.

What about the viability, T/C [25] of the same compound?
The viability, T/C was 84.2%.

What about the viability, T/C [26] of the same compound?
Its viability, T/C is 66.6%.

And the viability, T/C [27]?
Its viability, T/C is 31%.

What about the viability, T/C [28] of the same compound?
Its viability, T/C is 20.3%.

And the viability, T/C [29]?
The viability, T/C was 9.05%.

What about the viability, T/C [30] of the same compound?
The viability, T/C was 8.88%.

And the viability, T/C [31]?
The viability, T/C was 88.7%.

What about the viability, T/C [32] of the same compound?
Its viability, T/C is 66.6%.

What about the viability, T/C [33] of the same compound?
The viability, T/C was 35.9%.

What about the viability, T/C [34] of the same compound?
The viability, T/C was 20.1%.

And the viability, T/C [35]?
Its viability, T/C is 10.6%.

What about the viability, T/C [36] of the same compound?
The viability, T/C was 9.87%.

`CC(C)(O)C1CCC(Nc2ccc3ncc(-c4cccc(C(F)(F)F)c4)n3n2)CC1` (stereo unspecified) + Cc1[nH]c2ccc(F)cc2c1-c1nc2c3cccnc3c3ncccc3c2[nH]1 was tested. Which IC50 (second compound 0.0316 µM) did it give?
The IC50 was 5920 nM.

And the IC50 (second compound 0.1 µM)?
The IC50 was > 10000 nM.

And the IC50 (second compound 0.316 µM)?
The IC50 was 3810 nM.

And the IC50 (second compound 1 µM)?
The IC50 was 7900 nM.

What about the IC50 (second compound 3.16 µM) of the same compound?
Its IC50 is 2360 nM.

What about the IC50 (second compound 10 µM) of the same compound?
The IC50 was 1910 nM.

And the viability, T/C [1]?
Its viability, T/C is 103%.

What about the viability, T/C [2] of the same compound?
Its viability, T/C is 96.5%.

And the viability, T/C [3]?
Its viability, T/C is 80.2%.

And the viability, T/C [4]?
The viability, T/C was 63.9%.

And the viability, T/C [5]?
The viability, T/C was 44.6%.

What about the viability, T/C [6] of the same compound?
The viability, T/C was 53.3%.

And the viability, T/C [7]?
The viability, T/C was 90.9%.

And the viability, T/C [8]?
Its viability, T/C is 90.4%.

And the viability, T/C [9]?
The viability, T/C was 84.2%.

And the viability, T/C [10]?
Its viability, T/C is 67.4%.

What about the viability, T/C [11] of the same compound?
Its viability, T/C is 51%.

And the viability, T/C [12]?
The viability, T/C was 55.9%.

What about the viability, T/C [13] of the same compound?
The viability, T/C was 105%.

And the viability, T/C [14]?
The viability, T/C was 97.7%.

What about the viability, T/C [15] of the same compound?
The viability, T/C was 85.5%.

And the viability, T/C [16]?
Its viability, T/C is 68.8%.

And the viability, T/C [17]?
The viability, T/C was 43.3%.

And the viability, T/C [18]?
The viability, T/C was 51%.

What about the viability, T/C [19] of the same compound?
The viability, T/C was 97.4%.

What about the viability, T/C [20] of the same compound?
The viability, T/C was 96.4%.

What about the viability, T/C [21] of the same compound?
The viability, T/C was 89.2%.

What about the viability, T/C [22] of the same compound?
Its viability, T/C is 68%.

And the viability, T/C [23]?
Its viability, T/C is 47.4%.

And the viability, T/C [24]?
The viability, T/C was 52.9%.

What about the viability, T/C [25] of the same compound?
Its viability, T/C is 95.5%.

What about the viability, T/C [26] of the same compound?
The viability, T/C was 81.5%.

What about the viability, T/C [27] of the same compound?
The viability, T/C was 85.4%.

What about the viability, T/C [28] of the same compound?
Its viability, T/C is 70%.

And the viability, T/C [29]?
The viability, T/C was 40%.

And the viability, T/C [30]?
Its viability, T/C is 46.3%.

And the viability, T/C [31]?
Its viability, T/C is 99%.

What about the viability, T/C [32] of the same compound?
Its viability, T/C is 87.5%.

And the viability, T/C [33]?
Its viability, T/C is 79.7%.

And the viability, T/C [34]?
Its viability, T/C is 59.9%.

And the viability, T/C [35]?
Its viability, T/C is 38.5%.

What about the viability, T/C [36] of the same compound?
Its viability, T/C is 43.1%.

What does the source list for `COc1ncnc(C2CC2)c1-c1ncc2cnn(Cc3ccc(-c4nc(C(F)(F)F)cn4C(C)C)cc3)c2n1` + Cc1[nH]c2ccc(F)cc2c1-c1nc2c3cccnc3c3ncccc3c2[nH]1?
IC50 (second compound 0.0316 µM): > 10000 nM; IC50 (second compound 0.1 µM): > 10000 nM; IC50 (second compound 0.316 µM): > 10000 nM; IC50 (second compound 1 µM): > 10000 nM; IC50 (second compound 3.16 µM): > 10000 nM; IC50 (second compound 10 µM): > 10000 nM; viability, T/C [1]: 106%; viability, T/C [2]: 87.2%; viability, T/C [3]: 92.7%; viability, T/C [4]: 92.4%; viability, T/C [5]: 91.6%; viability, T/C [6]: 95.4%; viability, T/C [7]: 103%; viability, T/C [8]: 104%; viability, T/C [9]: 87.2%; viability, T/C [10]: 90.1%; viability, T/C [11]: 91.2%; viability, T/C [12]: 94.3%; viability, T/C [13]: 97.4%; viability, T/C [14]: 97.6%; viability, T/C [15]: 68.9%; viability, T/C [16]: 93%; viability, T/C [17]: 97.8%; viability, T/C [18]: 94.6%; viability, T/C [19]: 98.1%; viability, T/C [20]: 98.1%; viability, T/C [21]: 92.3%; viability, T/C [22]: 92.2%; viability, T/C [23]: 90.1%; viability, T/C [24]: 95.3%; viability, T/C [25]: 97.4%; viability, T/C [26]: 89.6%; viability, T/C [27]: 86.1%; viability, T/C [28]: 82.3%; viability, T/C [29]: 89.4%; viability, T/C [30]: 89.2%; viability, T/C [31]: 91.8%; viability, T/C [32]: 91.4%; viability, T/C [33]: 85.4%; viability, T/C [34]: 83.7%; viability, T/C [35]: 90.8%; viability, T/C [36]: 92.5%
